What was measured:
[1] = (§1) Metabolic stability in human liver microsomes assessed as clearance measured per mg of protein; format: ADME, Microsome; conditions: liver microsomes
[2] = Lipophilicity, log D at pH 7.4; format: physicochemical; conditions: buffer
[3] = tested on: Human immunodeficiency virus 1; assay: Antiviral activity against HIV1 BAL assessed as inhibition of viral replication; format: functional; conditions: Human immunodeficiency virus 1, BAL
Liver microsomes = assay: as §1; format: ADME, Microsome; conditions: microsomes
[4] = Clearance in iv dosed Sprague-Dawley rat; format: ADME, organism-based; conditions: in vivo
[5] = Half life in iv dosed Sprague-Dawley rat; format: ADME, organism-based; conditions: in vivo
[6] = Apparent permeability from apical to basolateral side of human Caco-2 cells; format: ADME, cell-based; conditions: read-out: permeability
[7] = Volume of distribution in iv dosed Sprague-Dawley rat; format: ADME, organism-based; conditions: in vivo
[8] = Apparent permeability from basolateral to apical side of human Caco-2 cells; format: ADME, cell-based; conditions: read-out: permeability
[9] = Oral bioavailability in Sprague-Dawley rat; format: ADME, organism-based; conditions: in vivo

Row | Structure (SMILES) | microsomal CLint [1] | logD ([2]; read-out: logD) | other results
1 | Cc1nnc(C(C)C)n1C1CCN(C(C)C[C@H](NC(=O)C(C)C)c2ccccc2)CC1 (mixture of isomers) | < 8 µL/min/mg |  | 
2 | Cc1nnc(C(C)C)n1C1CCN(C(C)C[C@H](NC(=O)C2CC2)c2ccccc2)CC1 (mixture of isomers) | < 8 µL/min/mg |  | 
3 | Cc1nnc(C(C)C)n1C1CCN(C(C)C[C@H](NC(=O)CC(F)(F)F)c2ccccc2)CC1 (mixture of isomers) | 11.4 µL/min/mg |  | 
4 | Cc1nnc(C(C)C)n1C1CCN(C(C)C[C@H](NC(=O)C2CCC(F)(F)CC2)c2ccccc2)CC1.Cl (mixture of isomers; form 2) | 16 µL/min/mg |  | logD [2]: 2
5 | CC(=O)N1CCC(C(=O)N[C@@H](CC(C)N2CCC(n3c(C)nnc3C(C)C)CC2)c2ccccc2)CC1 (mixture of isomers) | < 8 µL/min/mg |  | 
6 | Cc1nnc(C(C)C)n1C1CCN(C(C)C[C@H](NC(=O)C2CCOCC2)c2ccccc2)CC1 (mixture of isomers) | 10.8 µL/min/mg |  | 
7 | CC(=O)N[C@@H](CC(C)N1CCC(n2c(C)nnc2C(C)C)CC1)c1ccccc1 (mixture of isomers) | < 8 µL/min/mg |  | 
8 | Cc1nnc(C(C)C)n1C1CCN(C(C)C[C@H](NC(=O)C2CCCCC2)c2ccccc2)CC1 (mixture of isomers) | 139 µL/min/mg | 2.5 | 
9 | Cc1nnc(C(C)C)n1C1CCN(C(C)C[C@H](NC(=O)COCC(F)(F)F)c2ccccc2)CC1 (mixture of isomers) | 61.6 µL/min/mg |  | 
10 | Cc1nnc(C(C)C)n1[C@H]1C[C@H]2CC[C@@H](C1)N2CC[C@H](NC(=O)C1CCC(F)(F)CC1)c1ccccc1 [MARAVIROC] |  |  | IC90 [3]: 2.8 nM
11 | Cc1nnc(C(C)C)n1C1CCN(C(C)C[C@H](NC(=O)C2CCC(F)(F)CC2)c2ccccc2)CC1 (mixture of isomers; form 1) |  | 2 | CL (Liver microsomes): 19 µL/min/mg
12 | Cc1nnc(C(C)C)n1C1CCN(C(C)C[C@H](NC(=O)N2CCOCC2)c2ccccc2)CC1 (mixture of isomers) | < 8 µL/min/mg |  | 
13 | Cc1nnc(C(C)C)n1[C@@H]1C[C@H]2CC[C@@H](C1)N2CC[C@H](NC(=O)C1CCC(F)(F)CC1)c1ccccc1 [MARAVIROC] | 20 µL/min/mg | 1.9 | clearance [4]: 74 mL/min/kg; half-life [5]: 0.9 h; Papp A→B [6]: 1 ×10⁻⁶ cm/s; Vd [7]: 6.5 L/kg; Papp B→A [8]: 10 ×10⁻⁶ cm/s
14 | Cc1nnc(C(C)C)n1C1CCN([C@H](C)C[C@H](NC(=O)C2CC(F)(F)C2)c2ccccc2)CC1 | 12 µL/min/mg | 2.2 | clearance [4]: 92 mL/min/kg; IC90 [3]: 1.8 nM; half-life [5]: 1.3 h; Vd [7]: 10 L/kg; bioavailability [9]: 6%
15 | COC(=O)N[C@@H](CC(C)N1CCC(n2c(C)nnc2C(C)C)CC1)c1ccccc1 (mixture of isomers) | < 7 µL/min/mg | 1.5 | 
16 | Cc1nnc(C(C)C)n1C1CCN(C(C)C[C@H](NC(=O)C2CCS(=O)(=O)CC2)c2ccccc2)CC1 (mixture of isomers) |  | 0.5 | 
17 | Cc1nc(C(C)C)n([C@@H]2C[C@H]3CC[C@@H](C2)N3CC[C@H](NC(=O)C2CCC(F)(F)CC2)c2ccccc2)n1 | 6 µL/min/mg | 2.7 | Papp A→B [6]: 11 ×10⁻⁶ cm/s; Papp B→A [8]: 26 ×10⁻⁶ cm/s
18 | Cc1nnc(C(C)C)n1C1CCN(C(C)C[C@H](NC(=O)C2CC(F)(F)C2)c2ccccc2)CC1 (mixture of isomers; form 2) | < 7 µL/min/mg | 1.9 | 
19 | Cc1nnc(C(C)C)n1C1CCN(C(C)C[C@H](NC(=O)C2CC(F)(F)C2)c2ccccc2)CC1 (mixture of isomers; form 1) |  |  | logD [2]: 2; CL (Liver microsomes): < 7 µL/min/mg
20 | Cc1nnc(C(C)C)n1C1CCN([C@@H](C)C[C@H](NC(=O)C2CCC(F)(F)CC2)c2ccccc2)CC1 | < 7 µL/min/mg | 2.2 | 
21 | Cc1nnc(C(C)C)n1C1CCN(C(C)C[C@H](NC(=O)CC2CC2)c2ccccc2)CC1 (mixture of isomers) |  | 1.9 | 

— ChEMBL document CHEMBL1152883, “1-Amido-1-phenyl-3-piperidinylbutanes--CCR5 antagonists for the treatment of HIV: part 2” (Bioorg Med Chem Lett, 2009)
